Laboratory results reported in ChEMBL document CHEMBL3817847, “Design and synthesis of fused soluble epoxide hydrolase/peroxisome proliferator-activated receptor modulators” (Medchemcomm, 2016).
The source made the active and inactive calls. No cut-off for these calls is given here.

Tests used:
[1] = target: T1, Bifunctional epoxide hydrolase 2 (Homo sapiens, UniProt P34913); assay: Inhibition of recombinant human […] assessed as product formation preincubated for 30 mins followed by addition of (3-phenyl-cyano-(6-methoxy-2-naphthalenyl)methyl ester-2-oxirane-acetic acid as substrate measured after 30 mins by fluorescence analysis
T1 sequence (P34913 whole entry): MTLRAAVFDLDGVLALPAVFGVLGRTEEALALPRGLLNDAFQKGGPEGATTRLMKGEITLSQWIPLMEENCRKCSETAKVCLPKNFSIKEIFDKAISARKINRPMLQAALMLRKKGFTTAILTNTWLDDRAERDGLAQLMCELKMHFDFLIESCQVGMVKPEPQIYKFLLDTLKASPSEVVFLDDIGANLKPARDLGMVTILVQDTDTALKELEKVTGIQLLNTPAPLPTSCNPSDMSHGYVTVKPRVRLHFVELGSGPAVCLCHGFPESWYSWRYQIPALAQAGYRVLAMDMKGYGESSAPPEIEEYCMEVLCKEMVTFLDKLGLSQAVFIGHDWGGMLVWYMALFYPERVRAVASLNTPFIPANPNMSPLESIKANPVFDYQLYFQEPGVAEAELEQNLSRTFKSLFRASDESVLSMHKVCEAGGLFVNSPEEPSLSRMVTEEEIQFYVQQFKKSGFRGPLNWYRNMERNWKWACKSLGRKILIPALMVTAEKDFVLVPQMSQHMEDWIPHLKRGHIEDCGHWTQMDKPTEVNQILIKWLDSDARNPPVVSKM

[2] = target: T2, Peroxisome proliferator-activated receptor delta (Homo sapiens, UniProt Q03181); assay: Agonist activity at Gal4-tagged human PPARdelta ligand binding domain expressed in COS-7 cells measured after overnight incubation by dual-glo luciferase reporter gene assay; assay type: cell-based
T2 sequence (Q03181 whole entry): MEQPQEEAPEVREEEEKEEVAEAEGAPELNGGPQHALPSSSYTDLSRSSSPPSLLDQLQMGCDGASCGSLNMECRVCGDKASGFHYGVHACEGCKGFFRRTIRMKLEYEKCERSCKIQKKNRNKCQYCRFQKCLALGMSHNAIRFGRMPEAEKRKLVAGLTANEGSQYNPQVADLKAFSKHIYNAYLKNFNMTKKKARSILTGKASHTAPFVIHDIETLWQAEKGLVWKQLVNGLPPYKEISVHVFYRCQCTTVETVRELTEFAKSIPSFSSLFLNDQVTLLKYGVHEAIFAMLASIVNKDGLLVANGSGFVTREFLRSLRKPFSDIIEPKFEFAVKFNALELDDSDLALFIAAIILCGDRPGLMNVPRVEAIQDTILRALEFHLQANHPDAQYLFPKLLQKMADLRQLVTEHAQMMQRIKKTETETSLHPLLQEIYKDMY

[3] = target: T3, Peroxisome proliferator-activated receptor gamma (Homo sapiens, UniProt P37231); assay: Agonist activity at Gal4-tagged human PPARgamma ligand binding domain expressed in COS-7 cells measured after overnight incubation by dual-glo luciferase reporter gene assay; assay type: cell-based
T3 sequence (P37231 whole entry): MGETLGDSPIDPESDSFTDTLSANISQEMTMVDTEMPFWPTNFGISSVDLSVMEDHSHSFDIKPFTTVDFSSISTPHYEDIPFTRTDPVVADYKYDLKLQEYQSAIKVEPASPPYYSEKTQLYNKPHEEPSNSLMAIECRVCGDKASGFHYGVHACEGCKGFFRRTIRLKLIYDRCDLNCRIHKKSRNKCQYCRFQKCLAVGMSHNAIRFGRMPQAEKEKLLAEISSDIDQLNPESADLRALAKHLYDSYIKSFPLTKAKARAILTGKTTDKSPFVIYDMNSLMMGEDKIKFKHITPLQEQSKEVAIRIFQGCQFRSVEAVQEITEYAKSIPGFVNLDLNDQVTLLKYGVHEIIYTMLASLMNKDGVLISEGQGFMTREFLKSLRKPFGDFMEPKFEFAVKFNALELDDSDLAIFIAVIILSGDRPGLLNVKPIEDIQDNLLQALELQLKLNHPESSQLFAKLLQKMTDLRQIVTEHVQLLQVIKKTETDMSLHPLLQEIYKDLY

[4] = target: T4, Peroxisome proliferator-activated receptor alpha (Homo sapiens, UniProt Q07869); assay: Agonist activity at Gal4-tagged human PPARalpha ligand binding domain expressed in COS-7 cells measured after overnight incubation by dual-glo luciferase reporter gene assay; assay type: cell-based
T4 sequence (Q07869 whole entry): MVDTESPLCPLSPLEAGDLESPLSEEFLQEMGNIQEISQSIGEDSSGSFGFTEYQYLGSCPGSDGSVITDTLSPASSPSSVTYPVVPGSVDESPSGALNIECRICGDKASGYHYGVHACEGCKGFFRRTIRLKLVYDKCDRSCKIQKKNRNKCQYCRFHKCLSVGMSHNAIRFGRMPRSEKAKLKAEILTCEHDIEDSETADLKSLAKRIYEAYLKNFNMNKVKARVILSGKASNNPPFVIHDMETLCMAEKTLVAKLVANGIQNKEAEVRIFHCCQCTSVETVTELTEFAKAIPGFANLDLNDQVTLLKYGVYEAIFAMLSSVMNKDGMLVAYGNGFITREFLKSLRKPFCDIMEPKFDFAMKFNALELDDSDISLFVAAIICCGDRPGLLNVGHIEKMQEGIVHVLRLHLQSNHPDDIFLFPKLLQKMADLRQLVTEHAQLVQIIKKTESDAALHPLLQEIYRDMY

[5] = target: T5, Peroxisome proliferator-activated receptor gamma (Homo sapiens) (UniProt P37231); assay: Agonist activity at Gal4-tagged human PPARgamma ligand binding domain expressed in COS-7 cells at 30 uM measured after overnight incubation by dual-glo luciferase reporter gene assay; assay type: cell-based
T5 sequence (whole entry): T3 sequence (P37231 whole entry)

[6] = target: T6, Peroxisome proliferator-activated receptor delta (Homo sapiens) (UniProt Q03181); assay: Agonist activity at Gal4-tagged human PPARdelta ligand binding domain expressed in COS-7 cells at 30 uM measured after overnight incubation by dual-glo luciferase reporter gene assay; assay type: cell-based
T6 sequence (whole entry): T2 sequence (Q03181 whole entry)

[7] = target: T7, Peroxisome proliferator-activated receptor alpha (Homo sapiens) (UniProt Q07869); assay: Agonist activity at Gal4-tagged human PPARalpha ligand binding domain expressed in COS-7 cells at 30 uM measured after overnight incubation by dual-glo luciferase reporter gene assay; assay type: cell-based
T7 sequence (whole entry): T4 sequence (Q07869 whole entry)

[8] = target: T5, Peroxisome proliferator-activated receptor gamma (Homo sapiens); assay: Agonist activity at Gal4-tagged human PPARgamma ligand binding domain expressed in COS-7 cells at 10 uM measured after overnight incubation by dual-glo luciferase reporter gene assay; assay type: cell-based
3T3-L1 [9] = assay: Partial agonist activity at PPAR in mouse 3T3L1 cells assessed as increase in adipocyte differentiation after 14 days by Oil Red O staining method; assay type: cell-based
3T3-L1 [10] = assay: Agonist activity at PPAR in mouse 3T3L1 cells assessed as increase in adipocyte differentiation at 2 uM after 14 days by Oil Red O staining method; assay type: cell-based
[11] = target: T7, Peroxisome proliferator-activated receptor alpha (Homo sapiens); assay: Agonist activity at Gal4-tagged human PPARalpha ligand binding domain expressed in COS-7 cells at 10 um measured after overnight incubation by dual-glo luciferase reporter gene assay; assay type: cell-based

SMILES | EC50 ([2]; cos-7) | IC50 ([1]; read-out: IC50) [nM] | EC50 ([4]; cos-7) | EC50 ([3]; cos-7) | also measured
CC(C)(Oc1ccc(CCNC(=O)c2ccc(Cl)cc2)cc1)C(=O)O [BEZAFIBRATE] |  |  |  |  | IC50 [1]: Not Active; EC50 ([2]; read-out: EC50): 22600 nM; EC50 ([3]; read-out: EC50): 15400 nM
CCCCCCC(Sc1nc(Cl)cc(Nc2ccc(Nc3ccccc3)cc2)n1)C(=O)O (configuration not stated) | Not Active |  |  |  | IC50 [1]: Not Active; EC50 ([4]; read-out: EC50): 67 nM
CCCCCCC(Sc1nc(Cl)cc(N2CCC(C(=O)NCc3ccccc3C(F)(F)F)CC2)n1)C(=O)OCC (configuration not stated) | Not Active | 2500 | Not Active | Not Active | 
CNc1nc(C)nc(N[C@H]2CCC[C@@H](C(=O)NCc3ccc(C#N)cc3C(F)(F)F)C2)n1 [GSK2256294] | Not Active |  | Not Active | Not Active | 
CCOC(=O)C(C)Oc1ccc(CNC(=O)Nc2ccc(Cl)cc2)cc1 (configuration not stated) |  | 64 |  |  | Activity [5]: inactive; Activity [6]: inactive; Activity [7]: inactive
O=C(Nc1ccc(I)cc1)NC1CCCCC1 | Not Active |  | Not Active |  | Emax [8]: 22%
CC(Oc1ccc(CCNC(=O)Nc2ccc(Cl)cc2)cc1)C(=O)O (configuration not stated) |  | 570 |  |  | Activity [5]: inactive; Activity [6]: inactive; Activity [7]: inactive
CCCCCCC(Sc1nc(Cl)cc(NCCCC(=O)NCc2ccccc2C(F)(F)F)n1)C(=O)O (configuration not stated) | Not Active | 1200 |  |  | EC50 ([4]; read-out: EC50): 2500 nM; Activity (3T3-L1 [9]): Dose-dependent effect; EC50 ([3]; read-out: EC50): 6000 nM
CCOC(=O)/C(=C/c1ccc(N2CCC(C(=O)NCc3ccccc3C(F)(F)F)CC2)cc1)CC | Not Active | 40 | Not Active | Not Active | 
CCC(Cc1ccc(N2CCC(C(=O)NCc3ccccc3C(F)(F)F)CC2)cc1)C(=O)O (configuration not stated) | Not Active | 75 | Not Active | Not Active | 
CC/C(=C\c1ccc(N2CCC(C(=O)NCc3ccccc3C(F)(F)F)CC2)cc1)C(=O)O | Not Active | 27 | Not Active | Not Active | 
CC(Oc1ccc(CNC(=O)Nc2ccc(Cl)cc2)cc1)C(=O)O (configuration not stated) |  | 850 |  |  | Activity [5]: inactive; Activity [6]: inactive; Activity [7]: inactive
CCOC(=O)C(CC)Cc1ccc(N2CCC(C(=O)NCc3ccccc3C(F)(F)F)CC2)cc1 (configuration not stated) | Not Active | 23 | Not Active | Not Active | 
CN(CCOc1ccc(CC2SC(=O)NC2=O)cc1)c1ccccn1 (configuration not stated) |  |  |  |  | Activity (3T3-L1 [10]): Active
CCOC(=O)C(C)Oc1ccc(CCNC(=O)Nc2ccc(Cl)cc2)cc1 (configuration not stated) |  | 27 |  |  | Activity [5]: inactive; Activity [6]: inactive; Activity [7]: inactive
CCCCCCC(Sc1nc(Cl)cc(N2CCC(C(=O)NCc3ccccc3C(F)(F)F)CC2)n1)C(=O)O (configuration not stated) | Not Active | 300 |  | Not Active | Emax [11]: 65%
CCCCCCC(Sc1nc(Cl)cc(NCCCC(=O)NCc2ccccc2C(F)(F)F)n1)C(=O)OCC (configuration not stated) | Not Active | 1300 | Not Active | Not Active | 
